Measured values: ChEMBL document CHEMBL1828570, “Modeling the molecular basis for α4β1 integrin antagonism” (Bioorg Med Chem, 2011)

molecular target: Integrin alpha-4/beta-1 (Homo sapiens, UniProt P05556+P13612); assay: Antagonist activity at alpha4beta1 integrin; format: functional
Sequence (P05556 whole entry): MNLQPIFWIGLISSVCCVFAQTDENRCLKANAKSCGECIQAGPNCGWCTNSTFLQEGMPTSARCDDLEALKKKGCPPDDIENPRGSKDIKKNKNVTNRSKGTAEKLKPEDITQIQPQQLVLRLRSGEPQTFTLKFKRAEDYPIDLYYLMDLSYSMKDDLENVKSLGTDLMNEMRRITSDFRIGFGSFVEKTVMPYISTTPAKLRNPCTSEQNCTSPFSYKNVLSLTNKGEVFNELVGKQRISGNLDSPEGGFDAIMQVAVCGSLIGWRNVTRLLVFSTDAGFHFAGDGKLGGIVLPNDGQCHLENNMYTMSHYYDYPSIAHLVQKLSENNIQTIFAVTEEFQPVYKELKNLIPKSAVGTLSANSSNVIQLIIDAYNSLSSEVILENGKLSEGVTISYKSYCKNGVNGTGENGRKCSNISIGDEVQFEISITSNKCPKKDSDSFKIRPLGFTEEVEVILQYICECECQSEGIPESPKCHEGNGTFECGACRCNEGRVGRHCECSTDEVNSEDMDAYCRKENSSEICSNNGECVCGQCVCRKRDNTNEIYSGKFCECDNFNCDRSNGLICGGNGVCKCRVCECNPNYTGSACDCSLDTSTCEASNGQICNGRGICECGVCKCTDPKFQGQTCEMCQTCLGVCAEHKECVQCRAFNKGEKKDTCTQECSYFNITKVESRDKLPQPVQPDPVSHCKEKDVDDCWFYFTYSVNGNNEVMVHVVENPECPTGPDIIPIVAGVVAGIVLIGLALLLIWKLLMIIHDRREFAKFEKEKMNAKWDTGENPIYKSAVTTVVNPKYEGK
Sequence (P13612 whole entry): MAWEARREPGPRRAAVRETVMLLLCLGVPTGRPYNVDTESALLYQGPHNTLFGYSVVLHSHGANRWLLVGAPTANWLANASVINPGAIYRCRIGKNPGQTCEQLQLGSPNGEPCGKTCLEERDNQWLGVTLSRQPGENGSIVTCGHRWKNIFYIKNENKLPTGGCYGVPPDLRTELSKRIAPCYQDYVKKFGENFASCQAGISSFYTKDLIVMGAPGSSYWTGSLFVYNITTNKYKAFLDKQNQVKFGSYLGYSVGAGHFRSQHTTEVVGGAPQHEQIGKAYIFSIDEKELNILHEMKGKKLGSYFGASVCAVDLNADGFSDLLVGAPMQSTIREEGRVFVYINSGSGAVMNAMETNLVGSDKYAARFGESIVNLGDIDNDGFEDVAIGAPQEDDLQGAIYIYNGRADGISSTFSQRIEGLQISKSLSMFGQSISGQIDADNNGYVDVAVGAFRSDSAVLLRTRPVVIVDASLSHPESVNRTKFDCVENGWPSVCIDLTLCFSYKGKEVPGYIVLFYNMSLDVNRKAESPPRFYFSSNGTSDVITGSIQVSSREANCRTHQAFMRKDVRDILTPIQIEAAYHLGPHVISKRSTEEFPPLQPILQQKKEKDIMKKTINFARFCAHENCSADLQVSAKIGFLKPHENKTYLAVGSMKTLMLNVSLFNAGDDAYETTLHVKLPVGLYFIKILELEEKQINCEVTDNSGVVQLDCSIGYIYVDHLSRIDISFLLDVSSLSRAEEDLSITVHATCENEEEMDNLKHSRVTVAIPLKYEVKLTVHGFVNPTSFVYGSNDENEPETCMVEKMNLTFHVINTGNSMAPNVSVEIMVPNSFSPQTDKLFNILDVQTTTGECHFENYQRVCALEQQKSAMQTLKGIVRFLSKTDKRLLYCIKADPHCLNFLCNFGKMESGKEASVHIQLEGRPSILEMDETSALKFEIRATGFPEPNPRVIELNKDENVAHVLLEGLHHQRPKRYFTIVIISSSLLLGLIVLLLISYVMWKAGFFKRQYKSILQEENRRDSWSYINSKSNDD

Row | SMILES | IC50 [nM]
1 | COc1cccc(OC)c1-c1ccc(C[C@@H](NC(=O)[C@@]2(C)CCN2S(=O)(=O)c2cc(Cl)cc(Cl)c2)C(=O)O)cc1 | 0.07
2 | O=C(O)CC[C@H](NCS(=O)(=O)c1ccccc1)C(=O)N[C@@H](Cc1ccc(OCc2c(Cl)cccc2Cl)cc1)C(=O)O | 2
3 | COc1cccc(OC)c1-c1ccc(C[C@H](NC[C@@H]2CCCN2S(=O)(=O)c2cc(Cl)cc(Cl)c2)C(=O)O)cc1 | 140
4 | COc1ccccc1-c1ccc(C[C@H](NC(=O)Cc2ccccc2Cl)C(=O)O)cc1 | 36.8
5 | COCCCC[C@@]1(C(=O)N[C@H](Cc2ccc(-c3c(OC)cccc3OC)cc2)C(=O)O)CCCO1 | 1.27
6 | CS(=O)(=O)CCCCC1(C(=O)N[C@H](Cc2ccc(NC(=O)c3c(Cl)cccc3Cl)cc2)C(=O)O)CCC1 | 6

More lines, in order of falling IC50, values ahead:

Row | IC50 [nM] | SMILES
7 | 4100 | O=C(O)[C@@H](CSSCCNC(=O)C12CC3CC(CC(C3)C1)C2)NC12CC3CC(CC(C3)C1)C2
8 | 105 | O=C(Nc1ccc(C[C@H](NC(=O)[C@@H]2C3CCC(CC3)N2S(=O)(=O)c2ccccc2Cl)C(=O)O)cc1)c1cc(Cl)nc(Cl)c1
9 | 67 | CCCNc1c(N[C@@H](Cc2ccc(OCc3c(Cl)cccc3Cl)cc2)C(=O)O)c(=O)c1=O
10 | 4.5 | CC(C)C(=O)Oc1cccc(OC(=O)C(C)C)c1-c1ccc(C[C@@H](NC(=O)[C@@]2(C)CCCN2S(=O)(=O)c2cc(Cl)cc(Cl)c2)C(=O)O)cc1
